No end group written: not given here.
How the values were obtained:
wound healing = details: cited from earlier work; for restoring connective tissue deposition / restoring wound contraction: antagonism of cortisone inhibition of wound healing
[1] = tested on: wound healing in rats (sponge disc implants); experiment: Subcutaneous polyvinylchloride sponge disc implants in rats: collagen content and breaking strength; format: in vivo, rat
Text: (§1) Twenty-two male rats weighing between 300 g and 325 g were anesthetized, after which their backs and abdomens were shaved and washed with 70% ethanol. Three modified polyvinylchloride sponge discs 2 mm thick and 15 mm in diameter were implanted in each rat abdominally in subcutaneous pockets made under the skin. Two of the implants were cut in half and rejoined before the implantation, and the remaining disc was sandwiched between two silicone discs which forced granulation tissue infiltration to occur from the periphery of the disc. A single 15 mm×15 mm square full excision wound was made on the back and the wound edges tattooed.
(§2) The rats were then divided into four groups. A first, or control, group of four rats received sham injections daily. A second group of four rats received daily intramuscular injections of 10 mg of cortisone acetate. Cortisone is known to be an inhibitor of wound healing. A third group of seven rats received daily intramuscular injections of 0.3 mg of amide-terminated Magainin II. A fourth group of seven rats received daily intramuscular injections of 10 mg of cortisone acetate and 0.3 mg of Magainin II at separate sites. At seven days, rat weights were recorded, wound sizes measured, and the implants harvested. The staple which joined the two disc halves together was carefully removed and the breaking strength measured. Collagen content from the implant halves from each treatment group was measured by weighing the pepsin extracted native collagen. The sponge halves are homogenized in 0.5M ice-cold acetic acid containing 0.1 mg of pepsin per ml. The homogenate was stirred for 24 hours at 4° C., centrifuged, and supernatants saved. The native solubilized collagen was isolated by adding sodium chloride to 10% w/v. The salt precipitate was collected by centrifugation (10,000× g for 10 min.) and then taken up in 145 mM potassium phosphate buffer pH7.6, exhaustively dialyzed against 1 mM HCl, lyophilized and its dry weight recorded. Confirmation of collagen purity was made by SDS polyacrylamide gel electrophoresis. Pepsin digestion extracts only native collagen, needed for the formation of collagen fibers. The accumulations of collagen in the early stages of healing are responsible for gain in wound tensile strength. Collagen content from the implants taken from the group treated with cortisone acetate alone averaged 0.82 mg/sponge, as compared with 3.43 mg/sponge for the control group.
The group treated with Magainin II alone has a average wound breaking strength of 415 g.

[2] = tested on: full excision wound in rats; experiment: 15 mm×15 mm full excision wound on the back of rats: wound contraction; format: in vivo, rat; details: for average wound contraction: seven days
Text: as §1, §2

[3] = substance alone, daily intramuscular injections (Magainin II 0.3 mg; cortisone acetate 10 mg), implants harvested at seven days, control group 3.43

## C[C@]12CCC(=O)C=C1CC[C@@H]1[C@@H]2C(=O)C[C@@]2(C)[C@H]1CC[C@]2(O)C(=O)CO [Cortisone]
Wound healing; known
  effect on wound healing: inhibitor

## CC(=O)OCC(=O)[C@@]1(O)CC[C@H]2[C@@H]3CCC4=CC(=O)CC[C@]4(C)[C@H]3C(=O)C[C@@]21C [cortisone acetate, reference compound]
[1]; [3]
  average collagen content of implants: 0.82 mg/sponge

## GIGKFLHSAKKFGKAFVGEIMNS-NH2 [Magainin II]
[1]; 0.3 mg Magainin II plus 10 mg cortisone acetate daily intramuscular at separate sites, seven days, cortisone acetate alone 0.82
  average collagen content of implants: 3.20 mg/sponge
[1]; 0.3 mg Magainin II plus 10 mg cortisone acetate daily intramuscular at separate sites, seven days, cortisone acetate alone 195
  average wound breaking strength: 320 g
[1]; [3]
  average collagen content of implants: 3.82 mg/sponge
[2]; rats
  stimulating wound healing: effective
[2]; rats treated with cortisone acetate and Magainin II
  cortisone inhibition of wound healing (collagen deposition and wound contraction): antagonistic
[2]; rats, 0.3 mg Magainin II plus 10 mg cortisone acetate daily intramuscular at separate sites, cortisone acetate alone 28
  average wound contraction: 53%
[2]; rats, substance alone, daily intramuscular injections (Magainin II 0.3 mg; cortisone acetate 10 mg), control group 67
  average wound contraction: 65%

## Vitamin A
Wound healing
  restoring connective tissue deposition: effective
  restoring wound contraction: ineffective

## growth hormone: other antagonist of cortisone inhibition, effective in restoring connective tissue deposition
Wound healing
  restoring connective tissue deposition: effective
  restoring wound contraction: ineffective

From patent publication USRE35492E, “Wound treatment employing biologically active ion channel forming peptides and proteins” (Magainin Pharmaceuticals, Inc., priority 1994, dated 1997)
